{"source": "patent US8591876B2", "about": "“Methods of decreasing sebum production in the skin” (priority 2010, dated 2013)", "key": {"human sebocytes (SEB-1)": {"tested_on": "human sebocytes (SEB-1)", "experiment": "Cytotoxicity to human sebocytes (SEB-1), Cell Titer-Blue Cell Viability Assay", "type": "cell-based", "details": "in reference to cells incubated with media alone"}, "[1]": {"tested_on": "normal human keratinocytes (NHEK)", "experiment": "Cytotoxicity to normal human keratinocytes (NHEK), Cell Titer-Blue Cell Viability Assay", "type": "cell-based", "details": "in reference to cells incubated with media alone"}}}
{"compound": "N[C@@H](CCC(=O)N[C@@H](CSN=O)C(=O)NCC(=O)O)C(=O)O", "note": "[GSNO, S-nitrogluthione]", "values": [{"measurement": "% SEB-1 Killed", "setting": "human sebocytes (SEB-1); 0.12 mg/ml, 24 hr", "result": 6, "unit": "%"}, {"measurement": "% SEB-1 Killed", "setting": "human sebocytes (SEB-1); 0.12 mg/ml, 48 hr", "result": 11, "unit": "%"}, {"measurement": "% SEB-1 Killed", "setting": "human sebocytes (SEB-1); 0.12 mg/ml, 72 hr", "result": 19, "unit": "%"}, {"measurement": "% SEB-1 Killed", "setting": "human sebocytes (SEB-1); 0.6 mg/ml, 24 hr", "result": 48, "unit": "%"}, {"measurement": "% SEB-1 Killed", "setting": "human sebocytes (SEB-1); 0.6 mg/ml, 48 hr", "result": 68, "unit": "%"}, {"measurement": "% SEB-1 Killed", "setting": "human sebocytes (SEB-1); 0.6 mg/ml, 72 hr", "result": 67, "unit": "%"}, {"measurement": "% SEB-1 Killed", "setting": "human sebocytes (SEB-1); 1.2 mg/ml, 24 hr", "result": 85, "unit": "%"}, {"measurement": "% SEB-1 Killed", "setting": "human sebocytes (SEB-1); 1.2 mg/ml, 48 hr", "result": 97, "unit": "%"}, {"measurement": "% SEB-1 Killed", "setting": "human sebocytes (SEB-1); 1.2 mg/ml, 72 hr", "result": 98, "unit": "%"}, {"measurement": "% NHEK Killed", "setting": "[1]; 0.12 mg/ml, 24 hr", "result": 4, "unit": "%"}, {"measurement": "% NHEK Killed", "setting": "[1]; 0.12 mg/ml, 48 hr", "result": 5, "unit": "%"}, {"measurement": "% NHEK Killed", "setting": "[1]; 0.12 mg/ml, 72 hr", "result": 15, "unit": "%"}, {"measurement": "% NHEK Killed", "setting": "[1]; 0.6 mg/ml, 24 hr", "result": 8, "unit": "%"}, {"measurement": "% NHEK Killed", "setting": "[1]; 0.6 mg/ml, 48 hr", "result": "−11", "unit": "%"}, {"measurement": "% NHEK Killed", "setting": "[1]; 0.6 mg/ml, 72 hr", "result": "−3", "unit": "%"}, {"measurement": "% NHEK Killed", "setting": "[1]; 1.2 mg/ml, 24 hr", "result": 34, "unit": "%"}, {"measurement": "% NHEK Killed", "setting": "[1]; 1.2 mg/ml, 48 hr", "result": 53, "unit": "%"}, {"measurement": "% NHEK Killed", "setting": "[1]; 1.2 mg/ml, 72 hr", "result": 44, "unit": "%"}]}
